Like-named read-outs stand apart in the source and are kept apart here. Marks after values point to notes of the source that are not given here.
Key:
human D1R = target: T1, human D1R (Homo sapiens, UniProt P21728); conditions: human cloned receptor; read-out: Ki ± SEM, D1R; cited from earlier work
T1 construct: expressed in transfected cells; host or cells: mouse fibroblast cells (LhD1)

D3R [1] = target: T2, D3R (Homo sapiens, UniProt P35462); parameters: expressed in transfected cells; host or cells: HEK293; conditions: cited from earlier work; for D2/D3: ratio of Ki values D2R/D3R; for D4/D3: ratio of Ki values D4R/D3R
T2 sequence (P35462 whole entry): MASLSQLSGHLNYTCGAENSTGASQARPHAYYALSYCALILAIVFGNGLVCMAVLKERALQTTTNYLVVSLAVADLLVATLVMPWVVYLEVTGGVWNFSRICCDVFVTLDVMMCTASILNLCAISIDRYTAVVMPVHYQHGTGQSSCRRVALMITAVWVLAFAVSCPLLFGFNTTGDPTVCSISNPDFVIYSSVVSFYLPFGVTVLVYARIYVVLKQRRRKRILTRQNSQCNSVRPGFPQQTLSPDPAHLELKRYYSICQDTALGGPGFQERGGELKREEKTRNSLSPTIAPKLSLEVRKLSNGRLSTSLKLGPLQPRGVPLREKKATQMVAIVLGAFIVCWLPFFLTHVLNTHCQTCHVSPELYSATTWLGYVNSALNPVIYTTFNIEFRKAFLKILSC

5-HT2AR = 5-HT2AR (Homo sapiens, UniProt P28223); parameters: expressed in transfected cells; host or cells: HEK (HEK-h5HT2A); conditions: human cloned receptor; read-out: Ki ± SEM, 5-HT2AR; cited from earlier work
Chain of 5-HT2AR (P28223 whole entry): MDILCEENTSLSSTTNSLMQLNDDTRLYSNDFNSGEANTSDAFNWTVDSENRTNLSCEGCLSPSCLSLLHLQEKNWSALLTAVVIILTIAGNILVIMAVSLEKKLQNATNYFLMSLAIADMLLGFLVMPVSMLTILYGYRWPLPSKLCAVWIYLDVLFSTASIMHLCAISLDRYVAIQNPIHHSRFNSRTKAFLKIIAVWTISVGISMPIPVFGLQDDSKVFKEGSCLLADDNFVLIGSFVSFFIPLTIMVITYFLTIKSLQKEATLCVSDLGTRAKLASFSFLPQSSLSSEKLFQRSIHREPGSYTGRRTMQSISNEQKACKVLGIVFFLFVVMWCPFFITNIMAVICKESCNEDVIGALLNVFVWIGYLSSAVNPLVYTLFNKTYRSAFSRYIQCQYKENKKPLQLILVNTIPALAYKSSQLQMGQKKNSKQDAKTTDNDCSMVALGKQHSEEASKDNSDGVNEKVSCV

5-HT2CR = target: T3, 5-HT2CR (Homo sapiens, UniProt P28335); parameters: expressed in transfected cells; host or cells: HEK (HEK-h5HT2C); conditions: human cloned receptor; read-out: Ki ± SEM, 5-HT2CR; cited from earlier work
T3 sequence (P28335 33-458): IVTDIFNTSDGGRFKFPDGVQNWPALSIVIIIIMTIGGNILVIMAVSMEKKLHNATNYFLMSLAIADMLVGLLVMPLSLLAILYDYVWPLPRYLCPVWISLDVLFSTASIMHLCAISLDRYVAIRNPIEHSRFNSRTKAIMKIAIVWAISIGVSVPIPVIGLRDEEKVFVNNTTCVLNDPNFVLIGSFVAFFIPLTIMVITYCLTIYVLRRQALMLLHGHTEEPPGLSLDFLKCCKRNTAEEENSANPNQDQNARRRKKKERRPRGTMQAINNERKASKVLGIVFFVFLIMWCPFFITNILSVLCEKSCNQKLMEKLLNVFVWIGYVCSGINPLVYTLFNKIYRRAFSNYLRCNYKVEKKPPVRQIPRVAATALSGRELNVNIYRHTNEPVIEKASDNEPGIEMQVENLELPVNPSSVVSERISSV

human 5-HT1AR = target: T4, human 5-HT1AR (Homo sapiens, UniProt P08908); conditions: human cloned receptor; read-out: Ki ± SEM, 5-HT1AR; cited from earlier work
T4 construct: expressed in transfected cells; host or cells: HeLa
T4 sequence (P08908 1-422): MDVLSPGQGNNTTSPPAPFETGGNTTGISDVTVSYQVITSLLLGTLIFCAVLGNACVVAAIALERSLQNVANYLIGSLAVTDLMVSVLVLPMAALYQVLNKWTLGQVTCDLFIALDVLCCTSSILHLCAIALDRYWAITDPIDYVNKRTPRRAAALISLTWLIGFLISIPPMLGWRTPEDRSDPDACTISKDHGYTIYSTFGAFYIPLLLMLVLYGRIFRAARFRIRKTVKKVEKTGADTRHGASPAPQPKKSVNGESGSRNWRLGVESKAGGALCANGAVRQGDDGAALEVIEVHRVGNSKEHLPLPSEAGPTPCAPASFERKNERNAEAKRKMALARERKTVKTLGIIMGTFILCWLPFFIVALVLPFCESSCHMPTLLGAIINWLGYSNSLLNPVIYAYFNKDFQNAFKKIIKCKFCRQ

D3R [2] = target: T2, D3R; assay: Radioligand competition binding at human D3R ([3H]N-methylspiperone, HEK293 membranes); parameters: expressed in transfected cells; host or cells: HEK293
Protocol: The novel hybrid derivatives 3–11 were tested at hD2R, hD3R, or hD4R stably expressed in HEK293 cells by competition binding assays, using [^3H]N-methylspiperone as the radioligand, to evaluate their D2-like affinity and subtype selectivity, following the previously reported procedures.[41],[45],[46]
Binding at dopamine D2-like receptors was determined using previously described methods.[41],[45],[46] Membranes were prepared from HEK293 cells stably expressing human D2, D3, or D4, grown in a 50:50 mix of Dulbecco’s minimal essential medium (DMEM) and Ham’s F12 culture media, supplemented with 20 mM HEPES, 2 mM L-glutamine, 0.1 mM nonessential amino acids, 1× antibiotic/antimycotic, 10% heat-inactivated fetal bovine serum, and 200 μg/mL hygromycin (Life Technologies, Grand Island, NY) and kept in an incubator at 37 °C and 5% CO2. Upon reaching 80–90% confluency, the cells were harvested using premixed Earle’s Balanced Salt Solution (EBSS) with 5 μM EDTA (Life Technologies) and centrifuged at 3000 rpm for 10 min at 21 °C. The supernatant was removed, and the pellet was resuspended in 10 mL hypotonic lysis buffer (5 mM MgCl2, 5 mM Tris, pH 7.4 at 4 °C) and centrifuged at 20,000 rpm for 30 min at 4 °C. The pellet was then resuspended in fresh EBSS buffer made from 8.7 g/L Earle’s Balanced Salts without phenol red (US Biological, Salem, MA), 2.2 g/L sodium bicarbonate, pH to 7.4. A Bradford protein assay (Bio-Rad, Hercules, CA) was used to determine the protein concentration, and membranes were diluted to 500 μg/mL and stored at −80 °C for later use. Radioligand competition binding experiments were conducted using thawed membranes. Test compounds were freshly dissolved in 30% DMSO and 70% H2O to a stock concentration of 100 μM. To assist the solubilization of free-base compounds, 10 μL of glacial acetic acid was added along with DMSO. Each test compound was then diluted into 13 half-log serial dilutions using 30% DMSO vehicle; the final test concentrations ranged from 10 μM to 10 pM. The previously frozen membranes were diluted in fresh EBSS to a 100 μg/mL (for D2 or D3) or 200 μg/mL (D4) stock for binding. Radioligand competition experiments were conducted in glass tubes containing 300 μL of fresh EBSS buffer, 50 μL of diluted test compound, 100 μL of membranes (10 μg of total protein for D2 or D3 and 20 μg of total protein for D4), and 50 μL of [^3H]N-methylspiperone (0.4 nM final concentration; PerkinElmer). Nonspecific binding was determined using 10 μM butaclamol (Sigma-Aldrich, St. Louis, MO), and total binding was determined with the 30% DMSO vehicle. All compound dilutions were tested in triplicate and the reaction was incubated for 1 h at room temperature. The reaction was terminated by filtration through Whatman GF/B filters, presoaked for 1 h in 0.5% polyethylenimine, using a Brandel R48 filtering manifold (Brandel Instruments, Gaithersburg, MD). The filters were washed three times with 3 mL of ice-cold EBSS buffer and transferred to scintillation vials. CytoScint liquid scintillation cocktail (3 mL, MP Biomedicals, Solon, OH) was added, and vials were counted using a PerkinElmer Tri-Carb 2910 TR liquid scintillation counter (Waltham, MA).

D2R = D2R (Homo sapiens, UniProt P14416); parameters: expressed in transfected cells; host or cells: HEK293; conditions: human cloned receptor; read-out: Ki ± SEM, D2R; cited from earlier work
Chain of D2R (P14416 whole entry): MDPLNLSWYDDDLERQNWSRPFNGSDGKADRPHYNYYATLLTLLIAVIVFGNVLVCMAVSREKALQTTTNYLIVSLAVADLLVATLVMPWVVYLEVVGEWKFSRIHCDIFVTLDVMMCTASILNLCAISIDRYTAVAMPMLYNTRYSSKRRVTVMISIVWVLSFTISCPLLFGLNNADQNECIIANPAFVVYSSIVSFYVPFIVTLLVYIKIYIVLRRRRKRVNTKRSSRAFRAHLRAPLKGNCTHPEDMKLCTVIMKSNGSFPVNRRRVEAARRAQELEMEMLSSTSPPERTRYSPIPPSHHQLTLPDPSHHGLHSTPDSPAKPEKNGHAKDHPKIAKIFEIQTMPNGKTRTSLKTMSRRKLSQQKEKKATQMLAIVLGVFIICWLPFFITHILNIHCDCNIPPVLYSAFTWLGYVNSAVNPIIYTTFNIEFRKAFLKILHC

T1 sequence (P21728 whole entry): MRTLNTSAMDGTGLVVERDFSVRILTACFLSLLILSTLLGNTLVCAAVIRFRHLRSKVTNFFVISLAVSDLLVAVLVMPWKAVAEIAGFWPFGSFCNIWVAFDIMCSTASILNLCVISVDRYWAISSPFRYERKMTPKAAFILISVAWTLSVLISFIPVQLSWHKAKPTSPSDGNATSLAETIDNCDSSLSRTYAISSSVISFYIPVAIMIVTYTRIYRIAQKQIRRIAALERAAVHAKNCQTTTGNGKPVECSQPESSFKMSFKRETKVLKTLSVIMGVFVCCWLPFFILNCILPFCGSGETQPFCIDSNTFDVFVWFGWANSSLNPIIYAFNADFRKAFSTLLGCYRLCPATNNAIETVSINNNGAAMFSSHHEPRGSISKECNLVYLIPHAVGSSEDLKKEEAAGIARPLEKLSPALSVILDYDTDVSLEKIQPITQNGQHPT

SMILES: COc1ccccc1OCCNCC1COCC(c2ccccc2)(c2ccccc2)O1 (stereo not shown) [compound 1]
- Ki (human D1R): 22.9 ± 3.1 nM

SMILES: CN1CCN(C2=Nc3cc(Cl)ccc3Nc3ccccc32)CC1 [clozapine]
- D2/D3 (D3R [1]): 0.62 ^e
- D4/D3 (D3R [1]): 0.21 ^e

SMILES: Oc1cccc(OCCNCC2COCC(c3ccccc3)(c3ccccc3)O2)c1 (stereo not shown) [compound 2]
- Ki (5-HT2AR): 1410 ± 224 nM
- Ki (5-HT2CR): 9770 ± 501 nM
- Ki (human 5-HT1AR): 1.15 ± 0.03 nM
- Ki (human D1R): 123 ± 11 nM
- D2/D3 (D3R [2]; ratio of Ki values D2R/D3R): 2
- D4/D3 (D3R [2]; ratio of Ki values D4R/D3R): 8
- Ki (D3R [1]; human cloned receptor, read-out: Ki ± SEM, D3R): 1.38 ± 0.07 nM
- Ki (D2R): 3.16 ± 1 nM

SMILES: Cc1cc2c(s1)Nc1ccccc1N=C2N1CCN(C)CC1 [olanzapine]
- D2/D3 (D3R [1]): 0.62 ^e
- D4/D3 (D3R [1]): 0.51 ^e

Reference: PMC8498988, “Scaffold Hybridization Strategy Leads to the Discovery of Dopamine D3 Receptor-Selective or Multitarget Bitopic Ligands Potentially Useful for Central Nervous System Disorders” (ACS Chemical Neuroscience, 2021)
